# Assay results reported in patent US20220280405A1, “NOVEL COMPOUNDS FOR SKIN LIGHTENING” (Conopco, Inc. , d/b/a UNILEVER, priority 2019, published 2022).
# Tested on: Melanoderm human tissue (MEL-300-B, Mattek Corp.)
# Assay: Melanoderm assay (melanin quantitation)
# Type: cell-based
# Conditions: for Melanin (μg/μg protein): 12 d dosing, melanin normalized to protein, mean +/− standard deviation, n = 3
# Procedure: Control compounds consisted of a negative control (ultrapure water), vehicle control (DMSO in ultrapure water—final concentration of 0.1%) and positive control (2% kojic acid in ultrapure water—final concentration of 700 uM). Test compounds where prepared in DMSO at 10 mM concentrations and diluted with EPI-100-LLMM media (Mattek Corp.) to a final concentration of 10 uM. Melanoderm human tissue (MEL-300-B, Mattek Corp.) was equilibrated with EPI-100-NMM media for 24 h, followed by equilibration with EPI-100-LLMM media for 48 h prior to treatment with test compounds and controls. Dosing and re-feeding of melanoderms with controls and test compounds continued for a total of 12 d following standard protocols and the melanoderms collected for melanin quantitation, viability analysis and macroscopic/microscopic imaging analysis. For melanin quantitation, tissues were suspended in PBS buffer (5 ml) for 5 min, removed from the PBS and washed/rinsed with additional PBS (2 ml). Tissues were treated with 1% sodium bicarbonate solution (300 ul) for 30 min, followed by removal of the sodium bicarbonate solution and washed/rinsed with PBS solution (2×2 ml). Tissues were suspended in Solvable reagent (500 ul) and incubated at 95° C. for 24 h along with melanin standard samples (prepared by suspending melanin (cat # M8631, Sigma-Aldrich) in Solvable reagent to generate melanin standards at 0, 2.5, 5, 10, 25, 50 and 100 ug). All incubated samples were centrifuged at 13000 rpm for 5 min and the optical density of the supernatant was read/determined at 490 nm. The amount of melanin (ug) from each tissue sample was determined from the melanin standard samples calibration curve. Protein concentration of tissue samples was determined using the BCA protein assay kit (Pierce) and melanin content was normalized and expressed as melanin (ug)/protein (ug) (Table 1). Tissue viability as a result of test compound dosing/feeding relative to negative and vehicle controls was determined using the WST-1 reagent kit (cat # 05015944001, Roche). […]
structure (smiles),measurement,setting,value
"CC(C)Oc1ccc(C(NC2CCOCC2)C2CCCCC2)cc1 (stereo not drawn) [Compound of example 1, N-(cyclohexyl(4-isopropoxyphenyl)methyl)tetrahydro-2H-pyran-4-amine]",melanin content / skin lightening effect (in words),"melanoderm treatment, 10 uM, compared to vehicle control",reduced melanin content
same,Melanin (μg/μg protein),test compound 10 uM,0.177 +/− 0.019 μg/μg protein
"O=c1cc(CO)occ1O [Kojic acid, reference compound]",Melanin (μg/μg protein),positive control 700 μM,0.128 +/− 0.004 μg/μg protein
